In ChEMBL document CHEMBL1142743, “8-Piperazinyl-2,3-dihydropyrrolo[3,2-g]isoquinolines: potent, selective, orally bioavailable 5-HT1 receptor ligands” (Bioorg Med Chem Lett, 2005):
The source made the active and inactive calls. No cut-off for these calls is given here.

Tests used:
[1] = biological target: 5-hydroxytryptamine receptor 1D (Homo sapiens, UniProt P28221); experiment: Mean binding affinity towards 5-hydroxytryptamine 1D receptor using [3H]5-HT or [3H]-8-OH-DPAT as the radioligand
[2] = biological target: T1, 5-hydroxytryptamine receptor 1A (Homo sapiens, UniProt P08908); experiment: Mean binding affinity towards 5-hydroxytryptamine 1A receptor using [3H]-5-HT or [3H]8-OH-DPAT as the radioligand
T1 sequence (P08908 whole entry): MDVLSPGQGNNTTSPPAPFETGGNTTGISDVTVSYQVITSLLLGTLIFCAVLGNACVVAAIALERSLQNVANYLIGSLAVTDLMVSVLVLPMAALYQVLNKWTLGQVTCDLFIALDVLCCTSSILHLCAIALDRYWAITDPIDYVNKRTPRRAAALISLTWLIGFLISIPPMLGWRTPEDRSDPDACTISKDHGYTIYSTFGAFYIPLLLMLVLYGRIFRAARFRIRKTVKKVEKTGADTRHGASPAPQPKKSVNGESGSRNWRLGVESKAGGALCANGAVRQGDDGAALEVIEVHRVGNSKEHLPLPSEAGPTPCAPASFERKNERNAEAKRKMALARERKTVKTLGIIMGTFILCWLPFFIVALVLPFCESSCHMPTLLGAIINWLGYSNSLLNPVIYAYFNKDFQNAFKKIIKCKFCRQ

[3] = In vivo clearance after administration in rat; assay type: ADME, organism-based; settings: blood, read-out: CLb
[4] = Oral bioavailability in rat; assay type: ADME, organism-based; settings: in vivo
[5] = biological target: T2, 5-hydroxytryptamine receptor 1B (Homo sapiens, UniProt P28222); experiment: Mean binding affinity towards 5-hydroxytryptamine 1B receptor using [3H]5-HT or [3H]-8-OH-DPAT as the radioligand
T2 sequence (P28222 whole entry): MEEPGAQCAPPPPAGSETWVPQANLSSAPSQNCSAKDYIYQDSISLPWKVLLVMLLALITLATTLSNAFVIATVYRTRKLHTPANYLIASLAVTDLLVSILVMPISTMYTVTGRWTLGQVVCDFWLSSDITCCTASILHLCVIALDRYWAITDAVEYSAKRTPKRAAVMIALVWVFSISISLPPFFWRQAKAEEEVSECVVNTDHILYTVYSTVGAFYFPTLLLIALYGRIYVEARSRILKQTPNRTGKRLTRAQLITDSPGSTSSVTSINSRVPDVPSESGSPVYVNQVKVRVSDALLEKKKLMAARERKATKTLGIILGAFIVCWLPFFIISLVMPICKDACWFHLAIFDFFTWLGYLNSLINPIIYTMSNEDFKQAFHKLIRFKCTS

[6] = Brain/blood concentration after administration in rat; assay type: ADME, tissue-based; settings: read-out: Brain/Blood concentration
[7] = biological target: T3, 5-hydroxytryptamine receptor 1A (Homo sapiens) (UniProt P08908); experiment: Partial agonist efficacy in the 5-HT1A GTPgammaS functional assay; Expressed as fraction of 5-HT efficacy
T3 sequence (whole entry): T1 sequence (P08908 whole entry)

[8] = biological target: T2, 5-hydroxytryptamine receptor 1B; experiment: Partial agonist efficacy in the 5-HT1B GTPgammaS functional assay; Expressed as fraction of 5-HT efficacy
[9] = biological target: T3, 5-hydroxytryptamine receptor 1A (Homo sapiens); experiment: Partial agonist efficacy in the 5-HT1A GTPgammaS functional assay; Expressed as fraction of 5-HT efficacy; Inactive

Chain of 5-hydroxytryptamine receptor 1D (P28221 whole entry): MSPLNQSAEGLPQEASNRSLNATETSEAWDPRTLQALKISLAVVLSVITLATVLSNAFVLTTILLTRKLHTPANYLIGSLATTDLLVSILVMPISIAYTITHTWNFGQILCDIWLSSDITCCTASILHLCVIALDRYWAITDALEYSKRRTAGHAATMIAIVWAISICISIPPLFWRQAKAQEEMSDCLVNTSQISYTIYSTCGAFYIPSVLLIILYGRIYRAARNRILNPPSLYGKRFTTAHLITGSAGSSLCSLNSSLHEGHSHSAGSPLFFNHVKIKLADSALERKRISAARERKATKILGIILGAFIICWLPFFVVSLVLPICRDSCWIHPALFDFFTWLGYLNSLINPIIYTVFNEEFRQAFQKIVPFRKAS

| Compound | Ki [1] [nM] | Ki [2] [nM] | clearance [3] [mL/min/kg] | bioavailability [4] [%] | Ki [5] [nM] | Kp [6] | Efficacy [7] | Efficacy [8] | Efficacy [9] |
| --- | --- | --- | --- | --- | --- | --- | --- | --- | --- |
| Cc1nc(C)c(C(=O)N2CCc3cc4ccnc(N5CCN(C)CC5)c4cc32)o1 | 2.51 | 6.31 | 39 | 55 | 15.8 | 0.5 | – | – | – |
| CCc1c(C(=O)N2CCc3cc4ccnc(N5CCN6CCC[C@H]6C5)c4cc32)cnn1-c1ccc(C#N)cc1 | 3.16 | 1.26 | – | – | 2 | – | – | – | – |
| CN1CCN(c2cc3c(cc2Cl)CCN3C(=O)Nc2ccc(-c3ccncc3)c3ccccc23)CC1 | 2 | 10 | – | – | 7.94 | – | – | – | – |
| CCc1c(C(=O)N2CCc3cc4ccnc(N5CCN6CCC[C@@H]6C5)c4cc32)cnn1-c1ccc(C#N)cc1 | 1 | 1.58 | – | – | 1 | – | – | – | – |
| CN1CCN(c2nccc3cc4c(cc23)N(C(=O)c2cnn(C)c2C(F)(F)F)CC4)CC1 | 10 | 6.31 | 48 | – | 5.01 | 0.1 | – | – | – |
| CN1CCN(c2nccc3cc4c(cc23)N(C(=O)c2ccccc2C(F)(F)F)CC4)CC1 | 15.8 | 10 | – | – | 15.8 | – | – | 0.23 | inactive |
| CN1CCN(c2nccc3cc4c(cc23)N(C(=O)c2ccc(Cl)cc2)CC4)CC1 | 0.501 | 0.794 | 29 | – | 0.316 | 1.3 | 0.69 | 0.75 | – |
| Cc1cc(C(=O)N2CCc3cc4ccnc(N5CCN(C)CC5)c4cc32)c(C(F)(F)F)o1 | 7.94 | 5.01 | – | – | 2 | – | – | – | – |
| CN1CCN(c2nccc3cc4c(cc23)N(C(=O)c2ccc(C(F)(F)F)nc2)CC4)CC1 | 0.501 | 3.16 | – | – | 0.251 | – | – | – | – |

More lines, now with the values ahead:

| Ki [1] [nM] | Ki [2] [nM] | clearance [3] [mL/min/kg] | bioavailability [4] [%] | Ki [5] [nM] | Kp [6] | Efficacy [7] | Efficacy [8] | Efficacy [9] | Compound |
| --- | --- | --- | --- | --- | --- | --- | --- | --- | --- |
| 7.94 | 31.6 | – | – | 7.94 | – | – | – | – | CCc1c(C(=O)N2CCc3cc4ccnc(N5C[C@@H](C)N[C@@H](C)C5)c4cc32)cnn1-c1ccc(C#N)cc1 |
| 2.51 | 1.26 | – | – | 2.51 | – | – | – | – | CCc1c(C(=O)N2CCc3cc4ccnc(N5CCNCC5)c4cc32)cnn1-c1ccc(C#N)cc1 |
| 7.94 | 6.31 | – | – | 3.98 | – | – | – | – | CCc1c(C(=O)N2CCc3cc4ccnc(N5CCN(C(C)C)CC5)c4cc32)cnn1-c1ccc(C#N)cc1 |
| 0.631 | 1.26 | 28 | 50 | 1 | 0.5 | 0.33 | 0.47 | – | CCc1c(C(=O)N2CCc3cc4ccnc(N5CCN(C)CC5)c4cc32)cnn1-c1ccc(C#N)cc1 |
| 1.26 | 0.316 | – | – | 1 | – | – | – | – | CN1CCN(c2nccc3cc4c(cc23)N(C(=O)c2cnn3ccccc23)CC4)CC1 |
| 0.631 | 0.631 | 32 | 40 | 0.631 | 1.1 | 0.54 | 0.59 | – | Cc1c(C(=O)N2CCc3cc4ccnc(N5CCN(C)CC5)c4cc32)cnn1-c1ccccc1 |
| 3.98 | 3.98 | 75 | – | 0.794 | 0.2 | – | – | – | CN1CCN(c2nccc3cc4c(cc23)N(C(=O)c2cccc3ncccc23)CC4)CC1 |
| 2.51 | 3.16 | – | – | 1.58 | – | – | – | – | CCc1c(C(=O)N2CCc3cc4ccnc(N5CCN(CC)CC5)c4cc32)cnn1-c1ccc(C#N)cc1 |
| 2.51 | 5.01 | – | – | 1.26 | – | 0.42 | 0.42 | – | CN1CCN(c2nccc3cc4c(cc23)N(C(=O)c2ccccc2Cl)CC4)CC1 |
| 0.794 | 1 | 19 | – | 0.501 | 0.7 | 0.84 | 0.86 | – | CN1CCN(c2nccc3cc4c(cc23)N(C(=O)c2ccc(C#N)cc2)CC4)CC1 |
